Test results from patent US20080261891A1, “COMPOSITIONS AND METHODS FOR USING SYRINGOPEPTIN 25A AND RHAMNOLIPIDS” (Utah State University, priority 2007, published 2008).
Converted amounts (≈) assume the structure as drawn. Read-outs that look alike come from different tables or passages of the source. Where a SMILES comes first, the peptide text is derived from it. Bridges are numbered along the chain shown (N, C = ends). [ ]: non-standard residue; d: D form. The star is where a group is joined. ξ: configuration not given here. Decanoyl(3ξ-OH) = CCCCCCCC(O)CC(=O)*; Dab = NCC[CH](N)C(=O)O; Dhb = C/C=C(\N)C(=O)O

Experiments:
[1] = tested on: selected human cancer cell lines;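 further: MTT dye viability readout in semi-confluent cancer cells, compound exposure 1-24 hours, MTT then 4 hours at 37 °C, compared against untreated negative control wells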
Method: Cancer cell assays can be performed using the MTT dye protocol. Viability of cells may be determined by the dye response. In the following procedure, approximately 1.5×10^4 cells per well can be added and viability may be determined with the cells in a semi-confluent state. The assay can be performed in a 96-well microtiter plate using a New Brunswick Cell Counter. After addition of the compound or compounds of the present invention, the plate may incubate for 1-24 hours. MTT may be added to each well including negative control wells untreated with the compounds of the present invention. The plate would then be incubated at 37° C. for 4 hours. The liquid contents of each well can then be removed, and isopropanol with 0.1 M HCl would then be added to each well. The plate can be sealed with parafilm to prevent evaporation of the isopropanol. The plate would then be allowed to sit for approximately 5-10 minutes in order to solubilize the precipitate. Purified water would then be added to each well.

RBC = settings: reported by Dalla Serra et al. 1999; cited from earlier work

Compound: C/C=C(\NC(=O)C(C)NC(=O)C(C)NC(=O)C(CC(C)C)NC(=O)C(NC(=O)C(C)NC(=O)C(C)NC(=O)C(NC(=O)C1CCCN1C(=O)/C(=C/C)NC(=O)CC(O)CCCCCCC)C(C)C)C(C)C)C(=O)NC(C(=O)N/C(=C\C)C(=O)NC(C)C(=O)NC(C(=O)NC(C)C(=O)NC(C)C(=O)N/C(=C\C)C(=O)NC1C(=O)NC(CO)C(=O)NC(C)C(=O)NC(C(C)C)C(=O)NC(C)C(=O)NC(CCN)C(=O)NC(CCN)C(=O)NC(Cc2ccc(O)cc2)C(=O)OC1C)C(C)C)C(C)C (stereo not drawn) [SP 25A, syringopeptin 25A] ({Decanoyl(3ξ-OH)}-[Dhb]PVAAVLAA[Dhb]V[Dhb]AVAA[Dhb]TSAVA[Dab][Dab]Y; ester 18-C; configuration not given here)
- IC50 ([1]; Bone (U2OS)): 101.47 µg/mL (≈ 42.3 µM)
- % cytotoxicity ([1]; Bone (U2OS), 1.00 ug/ml): −10.06%
- % cytotoxicity ([1]; Bone (U2OS), 2.50 ug/ml): −3.64%
- % cytotoxicity ([1]; Bone (U2OS), 5.00 ug/ml): 1.69%
- % cytotoxicity ([1]; Bone (U2OS), 10.00 ug/ml): 4.93%
- IC50 ([1]; Breast (MCF-7)): 30.27 µg/mL (≈ 12.6 µM)
- % cytotoxicity ([1]; Breast (MCF-7), 1.00 ug/ml): −20.40%
- % cytotoxicity ([1]; Breast (MCF-7), 2.50 ug/ml): −1.12%
- % cytotoxicity ([1]; Breast (MCF-7), 5.00 ug/ml): 1.76%
- % cytotoxicity ([1]; Breast (MCF-7), 10.00 ug/ml): 16.52%
- IC50 ([1]; Breast (MDA-MB231)): 10.14 µg/mL (≈ 4.23 µM)
- % cytotoxicity ([1]; Breast (MDA-MB231), 1.00 ug/ml): −12.40%
- % cytotoxicity ([1]; Breast (MDA-MB231), 2.50 ug/ml): 9.23%
- % cytotoxicity ([1]; Breast (MDA-MB231), 5.00 ug/ml): 21.98%
- % cytotoxicity ([1]; Breast (MDA-MB231), 10.00 ug/ml): 49.30%
- IC50 ([1]; Breast (MDA-MB435)): 6.25 µg/mL (≈ 2.6 µM)
- % cytotoxicity ([1]; Breast (MDA-MB435), 1.00 ug/ml): 20.78%
- % cytotoxicity ([1]; Breast (MDA-MB435), 2.50 ug/ml): −5.22%
- % cytotoxicity ([1]; Breast (MDA-MB435), 5.00 ug/ml): 18.84%
- % cytotoxicity ([1]; Breast (MDA-MB435), 10.00 ug/ml): 79.98%
- IC50 ([1]; Cervical (HeLa)): 25.50 µg/mL (≈ 10.6 µM)
- % cytotoxicity ([1]; Cervical (HeLa), 1.00 ug/ml): 1.68%
- % cytotoxicity ([1]; Cervical (HeLa), 2.50 ug/ml): 3.50%
- % cytotoxicity ([1]; Cervical (HeLa), 5.00 ug/ml): 1.08%
- % cytotoxicity ([1]; Cervical (HeLa), 10.00 ug/ml): 19.61%
- IC50 ([1]; Colon (HT29)): 29.72 µg/mL (≈ 12.4 µM)
- % cytotoxicity ([1]; Colon (HT29), 1.00 ug/ml): 8.89%
- % cytotoxicity ([1]; Colon (HT29), 2.50 ug/ml): 23.85%
- % cytotoxicity ([1]; Colon (HT29), 5.00 ug/ml): 24.59%
- % cytotoxicity ([1]; Colon (HT29), 10.00 ug/ml): 16.83%
- IC50 ([1]; Lung (A549)): 11.41 µg/mL (≈ 4.75 µM)
- % cytotoxicity ([1]; Lung (A549), 1.00 ug/ml): 15.66%
- % cytotoxicity ([1]; Lung (A549), 2.50 ug/ml): 13.51%
- % cytotoxicity ([1]; Lung (A549), 5.00 ug/ml): 41.14%
- % cytotoxicity ([1]; Lung (A549), 10.00 ug/ml): 43.82%
- IC50 ([1]; Ovarian (OVCAR3)): 19.75 µg/mL (≈ 8.23 µM)
- % cytotoxicity ([1]; Ovarian (OVCAR3), 1.00 ug/ml): 6.42%
- % cytotoxicity ([1]; Ovarian (OVCAR3), 2.50 ug/ml): 16.30%
- % cytotoxicity ([1]; Ovarian (OVCAR3), 5.00 ug/ml): 16.41%
- % cytotoxicity ([1]; Ovarian (OVCAR3), 10.00 ug/ml): 25.31%
- IC50 ([1]; Prostate (DU145)): 6.56 µg/mL (≈ 2.73 µM)
- % cytotoxicity ([1]; Prostate (DU145), 1.00 ug/ml): 26.92%
- % cytotoxicity ([1]; Prostate (DU145), 2.50 ug/ml): 23.60%
- % cytotoxicity ([1]; Prostate (DU145), 5.00 ug/ml): 45.22%
- % cytotoxicity ([1]; Prostate (DU145), 10.00 ug/ml): 76.25%
- IC50 ([1]; Stomach (AGS)): 18.58 µg/mL (≈ 7.74 µM)
- % cytotoxicity ([1]; Stomach (AGS), 1.00 ug/ml): 4.00%
- % cytotoxicity ([1]; Stomach (AGS), 2.50 ug/ml): 13.87%
- % cytotoxicity ([1]; Stomach (AGS), 5.00 ug/ml): 26.88%
- % cytotoxicity ([1]; Stomach (AGS), 10.00 ug/ml): 26.90%
- concentration to achieve 50% RBC hemolysis (RBC): 8880 ng/mL
